In BindingDB's records for doi:10.1016/j.bioorg.2015.05.010 (Universiti Teknologi Mara (Uitm), 2015):

Target: T1, Beta-glucuronidase (Bos taurus, UniProt A3KMY8)
T1 sequence (A3KMY8 whole entry): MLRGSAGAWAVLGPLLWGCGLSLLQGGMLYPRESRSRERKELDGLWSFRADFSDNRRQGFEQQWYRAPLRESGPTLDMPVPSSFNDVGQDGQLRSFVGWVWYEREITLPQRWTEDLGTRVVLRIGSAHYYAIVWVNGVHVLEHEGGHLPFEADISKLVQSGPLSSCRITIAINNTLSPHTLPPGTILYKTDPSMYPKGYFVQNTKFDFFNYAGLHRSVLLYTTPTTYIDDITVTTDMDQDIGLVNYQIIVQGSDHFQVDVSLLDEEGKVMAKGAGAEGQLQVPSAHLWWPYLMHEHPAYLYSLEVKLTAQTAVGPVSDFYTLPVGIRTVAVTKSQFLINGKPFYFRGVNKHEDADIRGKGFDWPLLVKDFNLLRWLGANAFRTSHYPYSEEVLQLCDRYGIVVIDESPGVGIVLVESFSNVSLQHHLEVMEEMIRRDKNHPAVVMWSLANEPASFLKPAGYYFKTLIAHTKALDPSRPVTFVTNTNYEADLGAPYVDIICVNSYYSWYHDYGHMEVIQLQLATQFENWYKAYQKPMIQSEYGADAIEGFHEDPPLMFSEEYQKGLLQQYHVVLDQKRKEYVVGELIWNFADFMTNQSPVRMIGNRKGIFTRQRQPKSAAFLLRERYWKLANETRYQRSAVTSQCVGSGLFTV
Test: Beta-glucuronidase Inhibition Assay
Protocol: The total reaction volume was 250 µL. […] The reaction mixture contained 185 µL of 0.1 M acetate buffer, 5 µL of test compound solution, 10 µL of enzyme solution was incubated at 37 °C for 30 min. […] All assays were run in triplicate.

IC50 [µM] | Compound
60.5 | Oc1cccc(-c2nc3c(Cl)cc(Cl)cc3[nH]2)c1O [3-(4,6-dichloro-1H-benzo[d]imidazol-2-yl)benzene-1,2-diol (4)]
14.2 | Oc1ccc(-c2nc3c(Cl)cc(Cl)cc3[nH]2)c(O)c1 [4-(4,6-dichloro-1H-benzo[d]imidazol-2-yl)benzene-1,3-diol (6)]
11.5 | Oc1ccc(O)c(-c2nc3c(Cl)cc(Cl)cc3[nH]2)c1 [2-(4,6-dichloro-1H-benzo[d]imidazol-2-yl)benzene-1,4-diol (7)]
36.1 | Clc1ccc(-c2nc3c(Cl)cc(Cl)cc3[nH]2)cc1 [4,6-Dichloro-2-(4-chlorophenyl)-1H-benzo[d]imidazole (12)]
86.3 | COc1ccc(-c2nc3c(Cl)cc(Cl)cc3[nH]2)cc1O [5-(4,6-dichloro-1H-benzo[d]imidazol-2-yl)-2-methoxyphenol (9)]
4.48 | Oc1ccccc1-c1nc2cc(Cl)cc(Cl)c2[nH]1 [2-(4,6-dichloro-1H-benzo[d]imidazol-2-yl)phenol (1)]
46.1 | Oc1ccc(-c2nc3c(Cl)cc(Cl)cc3[nH]2)cc1O [4-(4,6-dichloro-1H-benzo[d]imidazol-2-yl)benzene-1,2-diol (5)]
28.4 | Oc1cccc(-c2nc3c(Cl)cc(Cl)cc3[nH]2)c1 [3-(4,6-dichloro-1H-benzo[d]imidazol-2-yl)phenol (2)]
15.5 | COc1ccc(O)c(-c2nc3c(Cl)cc(Cl)cc3[nH]2)c1 [2-(4,6-dichloro-1H-benzo[d]imidazol-2-yl)-4-methoxyphenol (8)]
86.1 | Clc1cc(Cl)c2nc(-c3ccccn3)[nH]c2c1 [4,6-dichloro-2-(pyridin-2-yl)-1H-benzo[d]imidazole (19)]
14.2 | Oc1ccc(-c2nc3c(Cl)cc(Cl)cc3[nH]2)cc1 [4-(4,6-dichloro-1H-benzo[d]imidazol-2-yl)phenol (3)]
